For three compounds, IC50 and Activity results are on record in ChEMBL document CHEMBL1944561, “Discovery and SAR exploration of a novel series of imidazo[4,5-b]pyrazin-2-ones as potent and selective mTOR kinase inhibitors” (Bioorg Med Chem Lett, 2011).

The target of experiment [1] is Serine/threonine-protein kinase mTOR (Homo sapiens, UniProt P42345). As to the kind of experiment: Inhibition of mTOR-mediated S6 phosphorylation in human PC3 cells. It is filed as cell-based, PC-3.
Experiment [2] concerns the target T1, Serine/threonine-protein kinase Chk1 (Homo sapiens) (UniProt O14757).
T1 sequence (whole entry): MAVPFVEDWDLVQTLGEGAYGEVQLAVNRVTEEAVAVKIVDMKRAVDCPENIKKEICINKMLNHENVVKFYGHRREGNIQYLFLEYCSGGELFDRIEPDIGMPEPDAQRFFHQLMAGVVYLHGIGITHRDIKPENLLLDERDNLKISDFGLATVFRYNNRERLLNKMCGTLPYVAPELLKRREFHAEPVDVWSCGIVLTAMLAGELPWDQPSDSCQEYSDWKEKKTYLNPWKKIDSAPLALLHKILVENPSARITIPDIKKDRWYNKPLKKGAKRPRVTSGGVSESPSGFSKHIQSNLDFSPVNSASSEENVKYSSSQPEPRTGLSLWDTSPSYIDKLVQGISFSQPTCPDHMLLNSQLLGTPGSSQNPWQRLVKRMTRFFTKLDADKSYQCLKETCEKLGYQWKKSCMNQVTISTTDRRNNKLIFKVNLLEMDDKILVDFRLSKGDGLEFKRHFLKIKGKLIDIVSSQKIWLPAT
The experiment in a line: Inhibition of CHK1 assessed as activity remaining at 10 uM.

Experiment [3] deals with Tyrosine-protein kinase ABL1 (Homo sapiens) (UniProt P00519). As to the kind of experiment: Inhibition of Abl assessed as activity remaining at 10 uM.
In experiment [4] the target is Dual specificity mitogen-activated protein kinase kinase 1 (Homo sapiens) (UniProt Q02750). As to the kind of experiment: Inhibition of MEK1 assessed as activity remaining at 10 uM.
Chain of Dual specificity mitogen-activated protein kinase kinase 1 (Homo sapiens) (Q02750 whole entry): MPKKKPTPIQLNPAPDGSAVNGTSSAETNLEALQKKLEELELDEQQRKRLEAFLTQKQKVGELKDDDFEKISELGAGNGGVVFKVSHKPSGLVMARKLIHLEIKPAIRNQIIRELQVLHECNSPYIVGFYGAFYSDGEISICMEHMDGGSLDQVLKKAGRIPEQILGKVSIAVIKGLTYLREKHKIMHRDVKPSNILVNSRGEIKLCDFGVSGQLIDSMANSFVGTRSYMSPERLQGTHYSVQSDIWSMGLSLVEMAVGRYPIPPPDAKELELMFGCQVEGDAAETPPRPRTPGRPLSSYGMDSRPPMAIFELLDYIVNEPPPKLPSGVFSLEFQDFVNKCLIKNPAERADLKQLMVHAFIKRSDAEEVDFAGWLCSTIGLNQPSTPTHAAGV
For experiment [5], the target named is Serine/threonine-protein kinase pim-2 (Homo sapiens) (UniProt Q9P1W9). The experiment in a line: Inhibition of Pim2 assessed as activity remaining at 10 uM.
Chain of Serine/threonine-protein kinase pim-2 (Homo sapiens) (Q9P1W9 whole entry, looked up): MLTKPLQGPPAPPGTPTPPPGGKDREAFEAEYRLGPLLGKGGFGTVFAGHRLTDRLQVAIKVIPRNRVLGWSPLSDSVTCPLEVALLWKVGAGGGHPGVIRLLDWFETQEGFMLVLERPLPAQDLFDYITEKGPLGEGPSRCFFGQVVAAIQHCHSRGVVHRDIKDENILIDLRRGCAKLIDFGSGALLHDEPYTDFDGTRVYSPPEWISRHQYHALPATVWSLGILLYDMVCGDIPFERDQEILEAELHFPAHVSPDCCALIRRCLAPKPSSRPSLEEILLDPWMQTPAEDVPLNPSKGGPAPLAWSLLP
For experiment [6], the target named is Tyrosine-protein kinase SYK (Homo sapiens) (UniProt P43405). As to the kind of experiment: Inhibition of Syk assessed as activity remaining at 10 uM.
For experiment [7], the target named is Glycogen synthase kinase-3 beta (Homo sapiens) (UniProt P49841). As to the kind of experiment: Inhibition of GSK3-beta assessed as activity remaining at 10 uM.
Chain of Glycogen synthase kinase-3 beta (Homo sapiens) (P49841 whole entry, looked up): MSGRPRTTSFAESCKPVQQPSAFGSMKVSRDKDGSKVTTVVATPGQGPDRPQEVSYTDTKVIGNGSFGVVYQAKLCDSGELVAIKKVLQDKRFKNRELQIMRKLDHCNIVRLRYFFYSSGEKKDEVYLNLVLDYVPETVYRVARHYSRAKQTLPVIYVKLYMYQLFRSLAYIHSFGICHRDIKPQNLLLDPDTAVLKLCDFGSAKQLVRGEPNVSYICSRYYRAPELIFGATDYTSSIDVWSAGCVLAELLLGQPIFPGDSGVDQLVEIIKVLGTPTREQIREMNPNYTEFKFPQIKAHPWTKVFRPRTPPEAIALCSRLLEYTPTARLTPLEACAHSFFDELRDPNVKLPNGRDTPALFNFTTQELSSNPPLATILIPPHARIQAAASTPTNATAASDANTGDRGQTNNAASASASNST
A short description of experiment [8]: Inhibition of AMPK assessed as activity remaining at 10 uM.
Experiment [9] has as its target Rho-associated protein kinase 1 (Homo sapiens) (UniProt Q13464). As to the kind of experiment: Inhibition of ROCK1 assessed as activity remaining at 10 uM.
The target in experiment [10] is T2, Inhibitor of nuclear factor kappa-B kinase subunit beta (Homo sapiens) (UniProt O14920).
T2 sequence (whole entry): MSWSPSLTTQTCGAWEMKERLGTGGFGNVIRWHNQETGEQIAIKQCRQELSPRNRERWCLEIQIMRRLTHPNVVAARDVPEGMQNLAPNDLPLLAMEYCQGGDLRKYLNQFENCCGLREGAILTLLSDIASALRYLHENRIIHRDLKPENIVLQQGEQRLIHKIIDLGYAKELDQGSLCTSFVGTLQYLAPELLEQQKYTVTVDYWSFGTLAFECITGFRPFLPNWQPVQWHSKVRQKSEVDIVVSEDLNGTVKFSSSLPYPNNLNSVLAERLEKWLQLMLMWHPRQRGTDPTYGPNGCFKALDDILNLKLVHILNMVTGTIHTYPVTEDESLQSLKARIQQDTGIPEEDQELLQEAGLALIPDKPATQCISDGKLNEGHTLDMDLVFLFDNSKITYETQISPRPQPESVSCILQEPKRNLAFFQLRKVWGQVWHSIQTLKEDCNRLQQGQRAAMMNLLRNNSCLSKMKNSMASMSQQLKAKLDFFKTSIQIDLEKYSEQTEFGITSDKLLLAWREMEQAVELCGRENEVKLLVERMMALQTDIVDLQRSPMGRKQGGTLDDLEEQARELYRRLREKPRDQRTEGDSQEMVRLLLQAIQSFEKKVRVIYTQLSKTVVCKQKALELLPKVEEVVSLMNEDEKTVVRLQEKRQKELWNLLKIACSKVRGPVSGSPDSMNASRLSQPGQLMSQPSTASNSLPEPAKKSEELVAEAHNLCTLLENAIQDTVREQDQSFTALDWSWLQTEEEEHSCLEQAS
The experiment in a line: Inhibition of IKK-beta assessed as activity remaining at 10 uM.

The target in experiment [11] is Proto-oncogene tyrosine-protein kinase receptor Ret (Homo sapiens) (UniProt P07949). As to the kind of experiment: Inhibition of Ret assessed as activity remaining at 10 uM.
Chain of Proto-oncogene tyrosine-protein kinase receptor Ret (Homo sapiens) (P07949 whole entry): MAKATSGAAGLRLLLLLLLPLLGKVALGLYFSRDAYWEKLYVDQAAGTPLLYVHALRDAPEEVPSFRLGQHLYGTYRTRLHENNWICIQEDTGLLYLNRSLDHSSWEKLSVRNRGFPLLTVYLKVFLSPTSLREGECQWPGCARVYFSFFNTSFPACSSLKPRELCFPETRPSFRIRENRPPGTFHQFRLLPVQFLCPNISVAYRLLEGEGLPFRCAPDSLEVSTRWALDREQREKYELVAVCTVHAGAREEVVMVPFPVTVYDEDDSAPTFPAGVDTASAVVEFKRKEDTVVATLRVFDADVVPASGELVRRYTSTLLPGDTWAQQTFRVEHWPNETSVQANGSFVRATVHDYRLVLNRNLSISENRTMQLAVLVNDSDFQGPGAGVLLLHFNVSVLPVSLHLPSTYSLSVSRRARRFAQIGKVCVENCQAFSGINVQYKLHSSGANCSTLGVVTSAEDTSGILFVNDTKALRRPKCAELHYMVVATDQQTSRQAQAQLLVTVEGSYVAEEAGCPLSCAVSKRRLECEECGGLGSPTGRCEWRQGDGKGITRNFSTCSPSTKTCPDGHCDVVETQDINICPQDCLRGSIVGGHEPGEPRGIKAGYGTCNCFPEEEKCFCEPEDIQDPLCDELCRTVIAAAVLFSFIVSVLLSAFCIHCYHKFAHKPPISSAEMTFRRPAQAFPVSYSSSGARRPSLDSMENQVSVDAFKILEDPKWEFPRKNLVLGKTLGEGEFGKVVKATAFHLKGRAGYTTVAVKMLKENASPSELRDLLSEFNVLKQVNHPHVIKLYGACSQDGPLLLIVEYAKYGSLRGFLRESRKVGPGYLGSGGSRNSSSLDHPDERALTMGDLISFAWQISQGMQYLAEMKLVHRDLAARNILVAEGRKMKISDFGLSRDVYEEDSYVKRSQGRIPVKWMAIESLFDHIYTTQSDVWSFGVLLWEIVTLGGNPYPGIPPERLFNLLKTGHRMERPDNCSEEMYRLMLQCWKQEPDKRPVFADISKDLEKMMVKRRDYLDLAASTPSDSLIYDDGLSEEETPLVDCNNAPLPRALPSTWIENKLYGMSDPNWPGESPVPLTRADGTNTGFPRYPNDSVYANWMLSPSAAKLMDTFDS
In experiment [12] the target is T3, Aurora kinase A (Homo sapiens) (UniProt O14965).
T3 sequence (whole entry): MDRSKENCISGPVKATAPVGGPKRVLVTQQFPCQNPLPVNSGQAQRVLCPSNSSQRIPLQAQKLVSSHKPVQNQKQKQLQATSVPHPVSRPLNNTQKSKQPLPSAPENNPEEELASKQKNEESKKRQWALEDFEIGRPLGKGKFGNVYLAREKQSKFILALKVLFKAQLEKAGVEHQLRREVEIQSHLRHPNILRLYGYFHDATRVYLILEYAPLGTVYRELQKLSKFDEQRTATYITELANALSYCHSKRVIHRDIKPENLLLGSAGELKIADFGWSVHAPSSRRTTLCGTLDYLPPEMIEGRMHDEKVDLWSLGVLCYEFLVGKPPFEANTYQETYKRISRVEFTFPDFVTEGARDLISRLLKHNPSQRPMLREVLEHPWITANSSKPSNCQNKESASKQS
The experiment in a line: Inhibition of Aurora-A assessed as activity remaining at 10 uM.

The target of experiment [13] is 3-phosphoinositide-dependent protein kinase 1 (Homo sapiens) (UniProt O15530). As to the kind of experiment: Inhibition of PDK1 assessed as activity remaining at 10 uM.
Chain of 3-phosphoinositide-dependent protein kinase 1 (Homo sapiens) (O15530 whole entry, looked up): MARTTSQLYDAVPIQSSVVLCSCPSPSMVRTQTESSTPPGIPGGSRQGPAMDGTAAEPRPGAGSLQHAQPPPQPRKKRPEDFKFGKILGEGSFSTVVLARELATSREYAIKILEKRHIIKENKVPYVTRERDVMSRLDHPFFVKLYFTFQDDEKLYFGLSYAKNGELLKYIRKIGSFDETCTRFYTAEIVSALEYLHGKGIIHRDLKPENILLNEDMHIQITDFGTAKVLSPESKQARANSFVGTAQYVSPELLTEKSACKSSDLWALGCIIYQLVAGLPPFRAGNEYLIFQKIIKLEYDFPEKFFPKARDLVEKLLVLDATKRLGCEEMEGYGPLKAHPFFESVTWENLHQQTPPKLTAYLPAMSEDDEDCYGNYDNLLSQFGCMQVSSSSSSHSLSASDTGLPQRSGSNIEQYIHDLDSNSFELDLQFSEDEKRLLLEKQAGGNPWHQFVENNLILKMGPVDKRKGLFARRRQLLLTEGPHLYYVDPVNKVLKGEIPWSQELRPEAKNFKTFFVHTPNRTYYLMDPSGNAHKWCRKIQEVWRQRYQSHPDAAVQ
The target in experiment [14] is MAP kinase-activated protein kinase 2 (Homo sapiens) (UniProt P49137). As to the kind of experiment: Inhibition of MAPKAP-K2 assessed as activity remaining at 10 uM.
Chain of MAP kinase-activated protein kinase 2 (Homo sapiens) (P49137 whole entry, looked up): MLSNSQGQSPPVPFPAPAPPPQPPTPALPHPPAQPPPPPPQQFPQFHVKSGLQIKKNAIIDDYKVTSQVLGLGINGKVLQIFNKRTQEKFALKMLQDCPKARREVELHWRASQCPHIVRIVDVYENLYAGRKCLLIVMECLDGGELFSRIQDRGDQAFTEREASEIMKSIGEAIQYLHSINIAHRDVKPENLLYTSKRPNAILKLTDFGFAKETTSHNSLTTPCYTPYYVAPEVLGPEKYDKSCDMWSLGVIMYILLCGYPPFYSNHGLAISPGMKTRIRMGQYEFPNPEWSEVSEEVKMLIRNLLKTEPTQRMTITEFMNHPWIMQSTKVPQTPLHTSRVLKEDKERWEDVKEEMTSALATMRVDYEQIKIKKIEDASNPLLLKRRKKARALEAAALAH
The target in experiment [15] is Mitogen-activated protein kinase 9 (Homo sapiens) (UniProt P45984). The experiment in a line: Inhibition of JNK2alpha2 assessed as activity remaining at 10 uM.
Chain of Mitogen-activated protein kinase 9 (Homo sapiens) (P45984 whole entry, looked up): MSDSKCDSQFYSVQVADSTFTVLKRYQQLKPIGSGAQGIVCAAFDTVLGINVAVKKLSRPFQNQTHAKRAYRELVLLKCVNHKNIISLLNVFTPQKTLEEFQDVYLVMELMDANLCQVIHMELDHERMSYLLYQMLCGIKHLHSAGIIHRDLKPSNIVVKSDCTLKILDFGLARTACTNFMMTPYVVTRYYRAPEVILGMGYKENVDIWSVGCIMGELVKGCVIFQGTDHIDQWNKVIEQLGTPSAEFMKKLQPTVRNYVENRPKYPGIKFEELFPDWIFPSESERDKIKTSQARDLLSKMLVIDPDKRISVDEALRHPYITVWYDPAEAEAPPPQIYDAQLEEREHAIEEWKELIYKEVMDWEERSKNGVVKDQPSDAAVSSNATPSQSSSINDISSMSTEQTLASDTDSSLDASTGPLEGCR
In experiment [16] the target is RAF proto-oncogene serine/threonine-protein kinase (Homo sapiens) (UniProt P04049). The experiment in a line: Inhibition of cRaf assessed as activity remaining at 10 uM.

Chain of Rho-associated protein kinase 1 (Homo sapiens) (Q13464 2-1354 limits assumed): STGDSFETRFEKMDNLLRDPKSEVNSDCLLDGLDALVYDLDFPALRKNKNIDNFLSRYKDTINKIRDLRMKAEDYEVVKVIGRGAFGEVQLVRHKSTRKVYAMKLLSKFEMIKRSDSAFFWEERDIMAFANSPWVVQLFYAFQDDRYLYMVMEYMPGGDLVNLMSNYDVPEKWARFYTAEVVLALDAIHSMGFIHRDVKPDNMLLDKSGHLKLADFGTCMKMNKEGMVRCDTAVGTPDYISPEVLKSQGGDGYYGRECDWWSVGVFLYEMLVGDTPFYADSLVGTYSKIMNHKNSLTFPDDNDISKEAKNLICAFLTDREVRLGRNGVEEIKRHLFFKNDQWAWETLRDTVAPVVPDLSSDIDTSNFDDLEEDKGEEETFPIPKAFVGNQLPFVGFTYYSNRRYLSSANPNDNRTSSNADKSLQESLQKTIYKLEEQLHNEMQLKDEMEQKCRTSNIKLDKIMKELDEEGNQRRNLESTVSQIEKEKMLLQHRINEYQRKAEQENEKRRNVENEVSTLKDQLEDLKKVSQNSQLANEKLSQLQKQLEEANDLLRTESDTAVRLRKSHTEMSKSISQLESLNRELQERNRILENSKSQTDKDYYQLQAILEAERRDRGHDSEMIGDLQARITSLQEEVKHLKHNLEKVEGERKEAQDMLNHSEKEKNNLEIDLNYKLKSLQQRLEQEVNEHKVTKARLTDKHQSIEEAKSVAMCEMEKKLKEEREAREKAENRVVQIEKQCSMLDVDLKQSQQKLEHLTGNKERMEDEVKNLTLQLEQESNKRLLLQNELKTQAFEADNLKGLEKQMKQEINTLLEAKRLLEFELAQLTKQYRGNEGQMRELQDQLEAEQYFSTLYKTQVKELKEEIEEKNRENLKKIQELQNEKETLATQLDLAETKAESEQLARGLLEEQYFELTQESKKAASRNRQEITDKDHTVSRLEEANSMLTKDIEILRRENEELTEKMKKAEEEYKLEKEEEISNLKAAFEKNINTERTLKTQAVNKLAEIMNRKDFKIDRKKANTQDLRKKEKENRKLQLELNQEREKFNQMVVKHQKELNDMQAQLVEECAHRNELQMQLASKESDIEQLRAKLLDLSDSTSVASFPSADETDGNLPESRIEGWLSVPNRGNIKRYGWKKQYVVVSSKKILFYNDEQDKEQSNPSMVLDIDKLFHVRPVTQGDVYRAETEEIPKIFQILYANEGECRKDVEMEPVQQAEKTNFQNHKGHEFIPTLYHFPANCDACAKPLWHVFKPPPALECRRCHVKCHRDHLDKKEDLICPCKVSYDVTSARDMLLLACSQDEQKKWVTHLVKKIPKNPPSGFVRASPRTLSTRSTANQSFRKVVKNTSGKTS

For `O=c1[nH]c2ncc(-c3ccc(-c4nc[nH]n4)cc3)nc2n1CC1CCOCC1`, the IC50 in [1] came out at 273 nM. Further, the Activity was found to be 97% in experiment [2]; 83% in [3]; 84% in experiment [4]; 93% in [5]; 48% in experiment [6]; 70% in experiment [7]. Also, the Activity in experiment [8] amounted to 101%; in experiment [9] it was 96%; in experiment [10], 98%; in [11], 84%; in [12], 79%; in experiment [13], 91%. Besides, the Activity is 93% in experiment [14], 79% in experiment [15] and 70% in [16].
Compound `O=c1[nH]c2ncc(-c3ccc4[nH]cnc4c3)nc2n1CC1CCCCC1` yielded an IC50 in experiment [1] of 427 nM. For the same compound, the Activity in experiment [2] came to 88%; in experiment [3], 23%; in [4], 79%; in experiment [5] it was 101%; in experiment [6] it was 40%; in experiment [7] it was 10%. In addition, the Activity in experiment [8] came out at 76%; in experiment [9], 96%; in experiment [10] it was 82%; in experiment [11], 80%; in experiment [12] it was 32%; in experiment [13], 65%. For the same compound, the Activity in [14] stood at 89%; in [15], 85%; in experiment [16], 84%.
On to `CC(C)(O)c1ccc(-c2cnc3[nH]c(=O)n(CC4CCCCC4)c3n2)cc1`, for which, in experiment [1], it took 1350 nM to reach half-maximal inhibition (IC50). Also, the Activity in experiment [2] turned out to be 93%; in [3] it was 53%; in [4], 82%; in [5], 91%; in [6], 95%; in experiment [7], 31%. Also, the Activity in experiment [8] was 89%; in experiment [9], 97%; in [10] it was 91%; in experiment [11], 77%; in experiment [12], 58%; in experiment [13], 92%. Moreover, the figures for the Activity in [14], in [15] and in [16] were 99%, 110% and 87%, respectively.
